{"source": "patent US20120294803A1", "about": "“CXCR4 ANTAGONISTS FOR IMAGING OF CANCER AND INFLAMMATORY DISORDERS” (EMORY UNIVERSITY, priority 2010, published 2012)", "key": {"[1]": {"test": "Tissue biodistribution by tissue harvesting and gamma counter in normal mice", "assay_type": "in vivo, C57Black mice", "details": "15, 30, 60, 120 min post-injection", "experimental": "To determine the tissue biodistribution of [^18F]M508F using a gamma counter in regular C57Black mice, we harvested animal organs, including blood, at 15 min, 30 min, 60 min, and 120 min post-injection and measured the uptake of radioactivity in various organs [radioactivity (% injected dose)/g] with n=5 per group.\nResults are shown in FIG. 2 as average vales +/−SE."}, "[2]": {"tested_on": "CXCR4-positive immune cells", "test": "MicroPET/CT imaging of lung inflammation induced by strong-dose radiation", "assay_type": "in vivo, mouse", "details": "20 Gy irradiation, 60 mins post-injection", "experimental": "MicroPET/CT scan images of the lungs were performed to determine whether [^18F]M508F can be used to image lung inflammation induced by the strong-dose radiation therapy in vivo. These images were obtained 60 minutes post-injection of [^18F]M508F.\nThese images were obtained 60 minutes post-injection of [^18F]M508F."}, "CXCR4": {"molecular_target": "CXCR4 (Homo sapiens, UniProt P61073)", "sequence (P61073 whole entry, species assumed)": "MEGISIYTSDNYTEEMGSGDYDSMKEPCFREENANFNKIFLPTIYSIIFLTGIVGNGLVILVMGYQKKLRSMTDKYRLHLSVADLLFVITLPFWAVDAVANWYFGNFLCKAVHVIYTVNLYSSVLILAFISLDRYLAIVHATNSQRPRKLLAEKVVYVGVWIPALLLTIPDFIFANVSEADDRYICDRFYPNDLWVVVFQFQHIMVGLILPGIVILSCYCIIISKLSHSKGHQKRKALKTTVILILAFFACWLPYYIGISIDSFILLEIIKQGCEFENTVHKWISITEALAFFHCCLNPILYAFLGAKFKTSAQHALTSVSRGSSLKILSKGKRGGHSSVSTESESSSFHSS", "test": "Competition binding assay, metastatic 686LN cells with [18F]M508F and increasing nonradioactive [19F]M508F", "experimental": "To determine whether [^18F]M508F specifically and quantitatively would bind to CXCR4 on the cell surface, we tested this using the metastatic 686LN subclones that are CXCR4-positive in vitro. […] Similarly, a competition assay was used to determine the binding affinity of [^18F]M508F to CXCR4. Metastatic 686LN cells, incubated with a constant amount of [^18F]-M508F and increasing concentrations of nonradioactive [^19F]-M508F for 1 h at ambient temperature, were used in the competition binding assay."}, "[3]": {"tested_on": "CXCR4-positive lung metastases", "test": "MicroPET/CT imaging in lung metastasis of SCCHN animal model", "assay_type": "in vivo, mouse", "details": "60 mins post-injection", "experimental": "MicroPET/CT scan images of the lungs were performed to determine whether [^18F]M508F can be used to image CXCR4-positive lung metastases in vivo. These images were obtained 60 minutes post-injection of [^18F]M508F."}, "[4]": {"tested_on": "CXCR4-positive orthothopic SCCHN tumors", "test": "MicroPET imaging in orthotopic SCCHN animal model", "assay_type": "in vivo, mouse", "details": "30 mins post-injection", "experimental": "In vivo biodistribution and tumor uptake studies were performed to determine whether [^18F]M508F can be used to image CXCR4-positive tumors in vivo."}, "CXCR4-positive paw edema": {"tested_on": "CXCR4-positive paw edema", "test": "MicroPET/CT imaging in edema animal model", "assay_type": "in vivo, mice", "details": "30 mins post-injection", "experimental": "In vivo biodistribution studies were performed to determine whether [^18F]M508F can be used to image CXCR4-positive inflammation in vivo."}}, "data": [{"molecule": "Fc1cnc([18F])nc1NCc1ccc(CNc2ccnc(NCCN3CCOCC3)n2)cc1", "note": "[[^18F]M508F, N4-(4((2-^18-fluoro,5-fluoropyrimidin-4-ylamino)methyl)benzyl)-N2-(2-morpholinoethyl)pyrimidine-2,4-diamine]", "values": [{"measurement": "accumulation in the liver", "setting": "[1]", "result": "anomalous specific accumulation in the liver"}, {"measurement": "blood and muscle clearance", "setting": "[1]", "result": "fast blood and muscle clearance"}, {"measurement": "clearance pathway", "setting": "[1]", "result": "renal clearance pathway"}, {"measurement": "uptake of tracer by CXCR4-positive immune cells in lung inflammation (PET/CT)", "setting": "[2]", "result": "significant uptake"}, {"measurement": "binding affinity better than 64Cu-AMD3100", "setting": "CXCR4; 1.85 μM compared with […]", "result": "over 50 times"}, {"measurement": "Kd", "setting": "CXCR4; metastatic 686LN cells, 1 h at ambient temperature, competition with nonradioactive [19F]-M508F, read-out: binding affinity for CXCR4", "result": 1850, "unit": "nM"}, {"measurement": "uptake of tracer by metastatic SCCHN tumors in lung (PET/CT)", "setting": "[3]", "result": "significant uptake"}, {"measurement": "tumor uptake of tracer (PET)", "setting": "[4]", "result": "significant uptake"}, {"measurement": "crossing of the blood-brain-barrier", "setting": "[4]; PET sagittal image", "result": "does not cross the blood-brain-barrier"}, {"measurement": "uptake of tracer in paw edema (PET)", "setting": "CXCR4-positive paw edema", "result": "significant uptake"}]}]}
